Assay results: ChEMBL document CHEMBL4052601, “Glycybridins A-K, Bioactive Phenolic Compounds from Glycyrrhiza glabra” (J Nat Prod, 2017)
Calls of active or inactive are those of the source. No cut-off for these calls is given here.

Columns and labels:
RAW264.7 [1] = test: Antiinflammatory activity against mouse RAW264.7 cells assessed as inhibition of LPS-induced nitric oxide production at 10 uM after 24 hrs by Griess assay relative to control; format: functional; settings: RAW264.7, 24 h
Homo sapiens = test: Inhibition of LPS-induced NF-kappaB (unknown origin) transactivation expressed in human SW480 cells at 10 uM administered 1 hr after LPS stimulation measured after 6 hrs by luciferase reporter gene assay relative to control; format: cell-based
HepG2 [2] = test: Antiproliferative activity against human HepG2 cells at 10 uM after 24 hrs by MTS assay relative to control; format: functional; settings: HepG2, 24 h
A549 [3] = test: Antiproliferative activity against human A549 cells at 10 uM after 24 hrs by MTS assay relative to control; format: functional; settings: A549, 24 h
MCF7 [4] = test: Antiproliferative activity against human MCF7 cells at 10 uM after 24 hrs by MTS assay relative to control; format: functional; settings: MCF7, 24 h
SW480 [5] = test: Antiproliferative activity against human SW480 cells at 10 uM after 24 hrs by MTS assay relative to control; format: functional; settings: SW480, 24 h
RAW264.7 [6] = test: Antiinflammatory activity against mouse RAW264.7 cells assessed as inhibition of LPS induced nitric oxide production at 20 uM […] followed by LPS challenge […] relative to control; format: functional
[7] = target: T1, Nuclear factor erythroid 2-related factor 2 (Homo sapiens) (UniProt Q16236); test: Activation of Nrf2 (unknown origin) expressed in human HepG2 cells after 6 hrs by ARE-driven luciferase reporter gene assay relative to control; format: cell-based
T1 sequence (whole entry): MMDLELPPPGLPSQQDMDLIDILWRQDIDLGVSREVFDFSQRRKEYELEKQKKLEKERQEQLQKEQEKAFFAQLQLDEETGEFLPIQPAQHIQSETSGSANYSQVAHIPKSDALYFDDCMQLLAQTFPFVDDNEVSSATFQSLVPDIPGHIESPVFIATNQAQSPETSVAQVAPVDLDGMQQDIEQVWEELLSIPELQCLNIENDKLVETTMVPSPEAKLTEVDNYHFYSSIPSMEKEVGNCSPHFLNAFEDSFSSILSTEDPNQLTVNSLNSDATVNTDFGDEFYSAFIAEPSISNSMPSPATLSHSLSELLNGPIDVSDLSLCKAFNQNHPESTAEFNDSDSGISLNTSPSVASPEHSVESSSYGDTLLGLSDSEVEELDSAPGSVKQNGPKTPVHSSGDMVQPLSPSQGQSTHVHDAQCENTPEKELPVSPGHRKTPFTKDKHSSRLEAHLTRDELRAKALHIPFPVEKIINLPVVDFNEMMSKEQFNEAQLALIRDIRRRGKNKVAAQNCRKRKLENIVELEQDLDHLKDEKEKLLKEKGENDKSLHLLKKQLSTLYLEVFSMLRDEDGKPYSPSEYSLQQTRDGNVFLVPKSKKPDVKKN

[8] = target: T2, Tyrosinase (Homo sapiens) (UniProt P14679); settings: at 10 µM;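 note: tyrosinase of unspecified origin acting on L-tyrosine, compound preincubated with enzyme for 15 min before adding substrate, inhibition expressed versus control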
T2 sequence (whole entry): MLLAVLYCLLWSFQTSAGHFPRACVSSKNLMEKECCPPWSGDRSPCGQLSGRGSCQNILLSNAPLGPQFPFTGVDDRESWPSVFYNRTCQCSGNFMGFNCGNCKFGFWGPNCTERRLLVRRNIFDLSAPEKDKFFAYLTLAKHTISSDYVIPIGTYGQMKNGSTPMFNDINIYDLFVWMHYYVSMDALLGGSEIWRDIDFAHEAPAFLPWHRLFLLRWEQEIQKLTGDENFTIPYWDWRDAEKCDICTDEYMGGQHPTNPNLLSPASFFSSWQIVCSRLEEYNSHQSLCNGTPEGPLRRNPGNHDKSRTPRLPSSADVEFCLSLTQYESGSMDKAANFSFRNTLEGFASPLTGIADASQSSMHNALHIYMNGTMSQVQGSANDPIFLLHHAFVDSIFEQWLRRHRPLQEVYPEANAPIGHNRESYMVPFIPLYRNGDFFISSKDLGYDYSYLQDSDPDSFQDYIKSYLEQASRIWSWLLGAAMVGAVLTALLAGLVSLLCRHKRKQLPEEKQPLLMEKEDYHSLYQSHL
Description: Inhibition of tyrosinase (unknown origin) using L-tyrosine as substrate at 10 uM preincubated for 15 mins followed by substrate addition relative to control

[9] = target: T3, Tyrosine-protein phosphatase non-receptor type 1 (Homo sapiens) (UniProt P18031); settings: at 10 µM;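 note: recombinant enzyme assay with pNPP substrate, inhibition read after 30 min versus untreated control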
T3 sequence (whole entry): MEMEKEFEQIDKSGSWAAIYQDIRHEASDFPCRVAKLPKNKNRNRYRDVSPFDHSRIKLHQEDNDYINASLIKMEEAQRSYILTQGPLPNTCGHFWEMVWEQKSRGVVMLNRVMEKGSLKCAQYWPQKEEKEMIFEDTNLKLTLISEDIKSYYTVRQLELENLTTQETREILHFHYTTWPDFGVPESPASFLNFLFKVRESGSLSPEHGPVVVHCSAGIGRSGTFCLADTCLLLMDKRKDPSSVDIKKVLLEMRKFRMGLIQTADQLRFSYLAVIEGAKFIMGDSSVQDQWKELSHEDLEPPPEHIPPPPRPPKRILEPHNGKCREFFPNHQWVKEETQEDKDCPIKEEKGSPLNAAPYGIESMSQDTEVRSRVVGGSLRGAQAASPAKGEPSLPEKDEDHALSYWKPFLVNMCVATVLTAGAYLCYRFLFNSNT
Description: Inhibition of recombinant human PTP1B using pNPP as substrate at 10 uM after 30 mins relative to control

A549 [10] = test: Antitumor activity against human A549 cells xenografted in BALB/c nude mouse assessed as tumor growth inhibition at 5 mg/kg, ip administered as daily dose for 16 days; format: functional, organism-based
Mus musculus [11] = test: Toxicity in BALB/c nude mouse xenografted with human A549 cells at 5 mg/kg, ip administered as daily dose for 16 days relative to control; format: organism-based; settings: in vivo, 384 h
Mus musculus [12] = test: Toxicity in BALB/c nude mouse xenografted with human A549 cells assessed as change in body weight at 5 mg/kg, ip administered as daily dose for 16 days relative to control; format: organism-based; settings: in vivo, 384 h
A549 [13] = test: Induction of apoptosis in human A549 cells assessed as early apoptotic cells at 2.5 uM after 8 hrs by Annexin V-FITC/propidium iodide staining-based flow cytometric analysis (reference value: 1.64%); format: functional
HepG2 [14] = test: Antiproliferative activity against human HepG2 cells after 24 hrs by MTS assay; format: functional, cell-based; settings: HepG2, 24 h
A549 [15] = test: Antiproliferative activity against human A549 cells after 24 hrs by MTS assay; format: functional, cell-based
MCF7 [16] = test: Antiproliferative activity against human MCF7 cells after 24 hrs by MTS assay; format: functional, cell-based; settings: MCF7, 24 h
SW480 [17] = test: Antiproliferative activity against human SW480 cells after 24 hrs by MTS assay; format: functional, cell-based; settings: SW480, 24 h
A549 [18] = test: Induction of apoptosis in human A549 cells assessed as late apoptotic cells at 2.5 uM after 8 hrs by Annexin V-FITC/propidium iodide staining-based flow cytometric analysis (reference value: 12.02%); format: functional
A549 [19] = test: Induction of apoptosis in human A549 cells assessed as early apoptotic cells at 5 uM after 8 hrs by Annexin V-FITC/propidium iodide staining-based flow cytometric analysis (reference value: 1.64%); format: functional
A549 [20] = test: Induction of apoptosis in human A549 cells assessed as late apoptotic cells at 5 uM after 8 hrs by Annexin V-FITC/propidium iodide staining-based flow cytometric analysis (reference value: 12.02%); format: functional
A549 [21] = test: Induction of apoptosis in human A549 cells assessed as early apoptotic cells at 10 uM after 8 hrs by Annexin V-FITC/propidium iodide staining-based flow cytometric analysis (reference value: 1.64%); format: functional
A549 [22] = test: Induction of apoptosis in human A549 cells assessed as late apoptotic cells at 10 uM after 8 hrs by Annexin V-FITC/propidium iodide staining-based flow cytometric analysis (reference value: 12.02%); format: functional
A549 [23] = test: Induction of apoptosis in human A549 cells assessed as early apoptotic cells at 20 uM after 8 hrs by Annexin V-FITC/propidium iodide staining-based flow cytometric analysis (reference value: 1.64%); format: functional
A549 [24] = test: Induction of apoptosis in human A549 cells assessed as late apoptotic cells at 20 uM after 8 hrs by Annexin V-FITC/propidium iodide staining-based flow cytometric analysis (reference value: 12.02%); format: functional
A549 [25] = test: Induction of apoptosis in human A549 cells after 8 hrs by Annexin V-FITC/propidium iodide staining-based flow cytometric analysis; format: functional, cell-based
A549 [26] = test: Antitumor activity against human A549 cells xenografted in BALB/c nude mouse assessed as reduction in tumor mass at 10 mg/kg, ip administered as daily dose for 16 days relative to control; format: functional; settings: 384 h
A549 [27] = test: Antitumor activity against human A549 cells xenografted in BALB/c nude mouse assessed as reduction in tumor volume at 10 mg/kg, ip administered as daily dose for 16 days relative to control; format: functional; settings: 384 h
Mus musculus [28] = test: Toxicity in BALB/c nude mouse xenografted with human A549 cells at 10 mg/kg, ip administered as daily dose for 16 days relative to control; format: organism-based; settings: in vivo, 384 h
Mus musculus [29] = test: Toxicity in BALB/c nude mouse xenografted with human A549 cells assessed as change in body weight at 10 mg/kg, ip administered as daily dose for 16 days relative to control; format: organism-based; settings: in vivo, 384 h

C=CC(C)(C)c1cc(/C=C/C(=O)c2ccc(O)cc2)c(OC)cc1O [LICOAGROCHACONE A]
inhibition at 10 µM (RAW264.7 [1]): 14.2%
inhibition (Homo sapiens): 57.2%
inhibition at 10 µM (HepG2 [2]): 57.9%
inhibition at 10 µM (A549 [3]): 17.8%
inhibition at 10 µM (MCF7 [4]): 55.9%
inhibition at 10 µM (SW480 [5]): 13.6%
fold change (FC) (RAW264.7 [6]): 0.8
Activity [7]: Dose-dependent effect
inhibition [8]: 10.6%
inhibition [9]: 14.5%

COc1cc([C@@H]2c3cc4c(cc3[C@@H](O[C@@H]3O[C@@H]5CO[C@@H](C)O[C@H]5[C@H](O)[C@H]3O)[C@H]3COC(=O)[C@H]23)OCO4)cc(OC)c1O [ETOPOSIDE]
TGI (A549 [10]): Active
Activity (Mus musculus [11]): Non-Toxic
Activity (Mus musculus [12]): Toxic

CC(C)=CCc1cc2c(cc1O)OCC(c1ccc(O)c3c1OC(C)(C)C=C3)=C2
inhibition at 10 µM (RAW264.7 [1]): 36%
inhibition (Homo sapiens): 41.6%
Activity (A549 [13]): 3.03%
inhibition at 10 µM (HepG2 [2]): 93.6%
inhibition at 10 µM (A549 [3]): 87.7%
inhibition at 10 µM (MCF7 [4]): 90.7%
inhibition at 10 µM (SW480 [5]): 94.6%
IC50 (HepG2 [14]): 4.6 to 6.6 µM
Activity (A549 [15]): Dose-dependent effect
IC50 (A549 [15]; A549, 24 h): 4.6 µM
IC50 (MCF7 [16]): 4.6 to 6.6 µM
IC50 (SW480 [17]): 4.6 to 6.6 µM
Activity (A549 [18]): 14.08%
Activity (A549 [19]): 2.42%
Activity (A549 [20]): 17.07%
Activity (A549 [21]): 16.04%
Activity (A549 [22]): 32.67%
Activity (A549 [23]): 22.81%
Activity (A549 [24]): 72.21%
Activity (A549 [25]): Dose-dependent effect
inhibition in vivo at 10 mg/kg (A549 [26]): 39.7%
inhibition in vivo at 10 mg/kg (A549 [27]): 38.9%
Activity (Mus musculus [28]): Non-Toxic
Activity (Mus musculus [29]): Non-Toxic
inhibition [8]: 3.8%
inhibition [9]: 80.4%
